In EP2608671B1, “COMPOUNDS FOR TREATMENT OF CANCER” (Gtx, Inc., priority 2010, dated 2012):
pIC50: −log10 of the molar value. Like-named read-outs stand apart in the source and are kept apart here.

How the values were obtained:
[1] = test system: PC-3; test: cells; settings: Homo sapiens
From the text: (§1) The only compounds which belong to the invention are the ones falling under the scope of formula (XI).
Cells were stained with SRB solution.
Cells. […] Cells between the third and fifth passages were used for experiments.
Cell growth inhibition studies. […] Cells were stained with sulphorhodamine B (SRB) solution.

[2] = test system: melanoma cell lines (A375, WM-164, B16-F1) and prostate cancer cell lines (LNCaP, DU 145, PC-3, PPC-1); test: SRB cytotoxicity, melanoma and prostate cell panel (averages); format: cell-based; settings: Prostate cell, read-out: IC50 (average over cell lines)
From the text: as §1

[3] = test system: DU 145; test: cells; settings: Homo sapiens
[4] = test system: LNCaP; test: cells; settings: Homo sapiens
[5] = test system: PPC-1; test: cells; settings: Homo sapiens
[6] = test system: B16-F1; test: SRB cell growth inhibition (cytotoxicity) assay; format: cell-based, mouse; settings: Mus musculus
From the text: as §1

[7] = test system: A375; test: SRB cell growth inhibition (cytotoxicity) assay; format: cell-based, human; settings: Homo sapiens
[8] = test system: WM-164; test: SRB cell growth inhibition (cytotoxicity) assay; format: cell-based, human; settings: Homo sapiens
[9] = PC-3, 96 h, read-out: IC50 ± SEM (nM), PC-3
[10] = DU-145, 96 h, read-out: IC50 ± SEM (nM) Du 145
[11] = 96 h, read-out: IC50 ± SEM (nM), LNCaP
[12] = PPC-1, 96 h, read-out: IC50 ± SEM (nM), PPC-1
[13] = B16-F1 melanoma cells, 48 h, SRB, read-out: IC50 ± SEM (nM) B16-F1
[14] = A-375, A375 melanoma cells, 48 h, SRB, read-out: IC50 ± SEM (nM) A375
[15] = WM164 melanoma cells, 48 h, SRB, read-out: IC50 ± SEM (nM) WM164
[16] = B16-F1, read-out: IC50 (nM), B16-F1
[17] = A-375, read-out: IC50 (nM), A375
[18] = WM164, read-out: IC50 (nM), WM164
[19] = PC-3, read-out: IC50 (nM), PC-3
[20] = DU-145, read-out: IC50 (nM), DU 145
[21] = PPC-1, read-out: IC50 (nM), PPC-1
[22] = B16-F1, Table 6A, read-out: IC50 (nM), B16-F1
[23] = A-375, Table 6A, read-out: IC50 (nM), A375
[24] = WM164, Table 6A, read-out: IC50 (nM), WM164

Molecule `COc1cc(C(=O)c2c[nH]c(-c3cc(OC)c(OC)c(OC)c3)n2)cc(OC)c1OC` [12ea, (3,4,5-trimethoxyphenyl)(2-(3,4,5-trimethoxyphenyl)-1H-imidazol-4-yl)methanone] has an IC50 [1, 9] greater than 10000 nM, a pIC50 [2] of less than 5.00 and an IC50 [3, 10] greater than 10000 nM. For the same molecule, the IC50 [4, 11] was greater than 10000 nM and the IC50 [5, 12] was greater than 10000 nM.
With `COc1cc(-c2nc(C(=O)c3ccc(F)cc3)c[nH]2)cc(OC)c1OC` [12eb, (4-fluorophenyl)(2-(3,4,5-trimethoxyphenyl)-1H-imidazol-4-yl)methanone] the IC50 [1, 9] was greater than 10000 nM, the pIC50 [2] was less than 5.00 and the IC50 [3, 10] was greater than 10000 nM. It also gave an IC50 [4, 11] greater than 10000 nM and an IC50 [5, 12] greater than 10000 nM.
`COc1ccc(S(=O)(=O)n2cc(C(=O)c3ccc(F)cc3)nc2-c2ccc(N(C)C)cc2)cc1` [12gba, (2-(4-(dimethylamino)phenyl)-1-((4-methoxyphenyl)sulfonyl)-1H-imidazol-4-yl)(4-fluorophenyl)methanone] was tested, and the IC50 [6, 13] was roughly 100 nM, the IC50 [7, 14] was roughly 100 nM and the IC50 [8, 15] was roughly 100 nM. The IC50 [1, 9] was 44.1 nM, the IC50 [3, 10] was 129 nM and the IC50 [4, 11] was 73.2 nM. It also gave an IC50 [5, 12] of 63.4 nM.
`COc1cc(C(=O)c2c[nH]c(-c3ccc(Br)cc3)n2)cc(OC)c1OC` [12la, (2-(4-bromophenyl)-1H-imidazol-4-yl)(3,4,5-trimethoxyphenyl)methanone] showed an IC50 [6, 13] of 74 nM, an IC50 [7, 14] of 32 nM and an IC50 [8, 15] of 36 nM. For the same molecule, the IC50 [1, 9] was 36 nM, the IC50 [3, 10] was 49 nM and the IC50 [4, 11] was 34 nM. The IC50 [5, 12] was 33 nM.
`COc1cc(C(=O)c2c[nH]c(-c3ccc(C(F)(F)F)cc3)n2)cc(OC)c1OC` [12pa, (2-(4-(trifluoromethyl)phenyl)-1H-imidazol-4-yl)(3,4,5-trimethoxyphenyl)methanone] showed an IC50 [6, 13] of 469 nM, an IC50 [7, 14] of 163 nM and an IC50 [8, 15] of 175 nM. It also gave an IC50 [1, 9] of 127 nM, an IC50 [3, 10] of 174 nM and an IC50 [4, 11] of 134 nM. The IC50 [5, 12] was 110 nM.
For `O=C(c1cc(O)c(O)c(O)c1)c1c[nH]c(-c2cc(O)c(O)c(O)c2)n1` [13ea, (3,4,5-trihydroxyphenyl)(2-(3,4,5-trihydroxyphenyl)-1H-imidazol-4-yl)methanone], the IC50 [6, 13] was greater than 10000 nM, the IC50 [7, 14] was greater than 10000 nM and the IC50 [8, 15] was greater than 10000 nM. For the same molecule, the IC50 [1, 9] was greater than 10000 nM, the IC50 [3, 10] was greater than 10000 nM and the IC50 [4, 11] was greater than 10000 nM. For the same molecule, the IC50 [5, 12] was greater than 10000 nM.
`O=C(c1cc(O)c(O)c(O)c1)c1c[nH]c(-c2ccc(Cl)cc2)n1` [13fa, (2-(4-chlorophenyl)-1H-imidazol-4-yl)(3,4,5-trihydroxyphenyl)methanone] showed an IC50 [1, 9] of 10000 nM, a pIC50 [2] of 5.41 and an IC50 [3, 10] of 10000 nM. It also gave an IC50 [4, 11] of 10000 nM and an IC50 [5, 12] greater than 10000 nM.
In the case of `COc1cc(C(=O)c2c[nH]c(-c3ccc4[nH]c(C(=O)c5cc(OC)c(OC)c(OC)c5)cc4c3)n2)cc(OC)c1OC` [15xaa, (5-(4-(3,4,5-Trimethoxybenzoyl)-1H-imidazol-2-yl)-1H-indol-2-yl)(3,4,5-trimethoxyphenyl)methanone], the IC50 [6, 16] was 1390 nM, the IC50 [7, 17] was 1800 nM and the IC50 [8, 18] was 1700 nM. The IC50 [1, 19] was 2630 nM, the IC50 [3, 20] was 5920 nM and the IC50 ([4]; read-out: IC50 (nM), LNCaP) was 1070 nM. For the same molecule, the IC50 [5, 21] was 4580 nM.
In the case of `COc1cc(C(=O)c2cn(S(=O)(=O)c3ccccc3)c(-c3ccc4c(c3)cc(C(=O)c3cc(OC)c(OC)c(OC)c3)n4S(=O)(=O)c3ccccc3)n2)cc(OC)c1OC` [16xaa, (1-(Phenylsulfonyl)-2-(1-(phenylsulfonyl)-2-(3,4,5-trimethoxybenzoyl)-1H-indol-5-yl)-1H-imidazol-4-yl)(3,4,5-trimethoxyphenyl)methanone], the IC50 [6, 16] was greater than 10000 nM, the IC50 [7, 17] was greater than 10000 nM and the IC50 [8, 18] was greater than 10000 nM. The IC50 [1, 19] was greater than 10000 nM, the IC50 [3, 20] was greater than 10000 nM and the IC50 ([4]; read-out: IC50 (nM), LNCaP) was greater than 10000 nM. It also gave an IC50 [5, 21] greater than 10000 nM.
In the case of `O=C(c1csc(-c2cc3ccccc3[nH]2)n1)c1cc2ccccc2[nH]1` [compound 8, (2-(1H-Indol-2-yl)thiazol-4-yl)(1H-indol-2-yl)methanone], the IC50 [6, 22] was 570 nM, the IC50 [7, 23] was 318 nM and the IC50 [8, 24] was 404 nM. For the same molecule, the IC50 [1, 19] was 704 nM, the IC50 [3, 20] was 580 nM and the IC50 ([4]; read-out: IC50 (nM), LNCaP) was 346 nM. It also gave an IC50 [5, 21] of 230 nM.
`COc1cc(C(=NC#N)c2csc(-c3ccccc3)n2)cc(OC)c1O` [compound 32, N-((4-hydroxy-3,5-dimethoxyphenyl)(2-phenylthiazol-4-yl)methylene)cyanamide] gave an IC50 [6, 22] greater than 10000 nM, an IC50 [7, 23] of 2700 nM and an IC50 [8, 24] of 2600 nM. For the same molecule, the IC50 [1, 19] was 2290 nM, the IC50 [3, 20] was 4600 nM and the IC50 ([4]; read-out: IC50 (nM), LNCaP) was 1660 nM. The IC50 [5, 21] was 1170 nM.
